According to patent EP0347459A1, “CEPHALOSPORIN COMPOUNDS OR THEIR SALTS, PROCESS FOR THEIR PREPARATION, AND PHARMACEUTICAL COMPOSITIONS” (TEIJIN LIMITED, priority 1987, dated 1988):
Converted amounts (≈) assume the structure as drawn.

Columns and labels:
Format in all cases: cell-based
E.cloacae 963 = assay: In vitro antibacterial activity, agar disc dilution method; settings: Enterobacter cloacae; E.cloacae 963; Mueller Hinton agar, 10^6/ml, 37°C for 16 hours; read-out: minimum growth inhibitory concentration (MIC)
Method: (§1) An in vitro antibacterial activity was measured by an agar disc dilution method.
(§2) Varied test bacteria were cultivated overnight in triptophane-soybroth. A Mueller Hinton agar containing the compound of this invention in varied concentrations was streaked with one platinum loopful of each of the bacteria (number of living cells 10^6/ml).

K.pneumoniae PCI602 = assay: as above; settings: Klebsiella pneumoniae; K.pneumoniae PCI602; Mueller Hinton agar, 10^6/ml, 37°C for 16 hours; read-out: minimum growth inhibitory concentration (MIC)
Method: as §1, §2

M.luteus ATCC9341 = assay: as above; settings: Micrococcus luteus; M.luteus ATCC9341; Mueller Hinton agar, 10^6/ml, 37°C for 16 hours; read-out: minimum growth inhibitory concentration (MIC)
Method: as §1, §2

P.aeruginosa IFO3445 = assay: as above; settings: Pseudomonas aeruginosa; P.aeruginosa IFO3445; Mueller Hinton agar, 10^6/ml, 37°C for 16 hours; read-out: minimum growth inhibitory concentration (MIC)
Method: as §1, §2

P.aeruginosa NCTC1049 = assay: as above; settings: Pseudomonas aeruginosa; P.aeruginosa NCTC1049; Mueller Hinton agar, 10^6/ml, 37°C for 16 hours; read-out: minimum growth inhibitory concentration (MIC)
Method: as §1, §2

P.aeruginosa PAD1 = assay: as above; settings: Pseudomonas aeruginosa; P.aeruginosa PAD1; Mueller Hinton agar, 10^6/ml, 37°C for 16 hours; read-out: minimum growth inhibitory concentration (MIC)
Method: as §1, §2

P.morganii IFO3445 = assay: as above; settings: Morganella morganii; P.morganii IFO3445; Mueller Hinton agar, 10^6/ml, 37°C for 16 hours; read-out: minimum growth inhibitory concentration (MIC)
Method: as §1, §2

P.vulgalis OX-11 = assay: as above; settings: P.vulgalis OX-11; Mueller Hinton agar, 10^6/ml, 37°C for 16 hours; read-out: minimum growth inhibitory concentration (MIC)
Method: as §1, §2

S. aureus Terajima = assay: as above; settings: Staphylococcus aureus; S. aureus Terajima; Mueller Hinton agar, 10^6/ml, 37°C for 16 hours; read-out: minimum growth inhibitory concentration (MIC)
Method: as §1, §2

S.aureus 209p NIHJ JC1 = assay: as above; settings: Staphylococcus aureus; S.aureus 209p NIHJ JC1; Mueller Hinton agar, 10^6/ml, 37°C for 16 hours; read-out: minimum growth inhibitory concentration (MIC)
Method: as §1, §2

S.enteritidis G14 = assay: as above; settings: Salmonella enterica; S.enteritidis G14; Mueller Hinton agar, 10^6/ml, 37°C for 16 hours; read-out: minimum growth inhibitory concentration (MIC)
Method: as §1, §2

S.marcescens IAM1184 = assay: as above; settings: Serratia marcescens; S.marcescens IAM1184; Mueller Hinton agar, 10^6/ml, 37°C for 16 hours; read-out: minimum growth inhibitory concentration (MIC)
Method: as §1, §2

S.pyogenes Cook = assay: as above; settings: Streptococcus pyogenes; S.pyogenes Cook; Mueller Hinton agar, 10^6/ml, 37°C for 16 hours; read-out: minimum growth inhibitory concentration (MIC)
Method: as §1, §2

S.typhi 901 = assay: as above; settings: Salmonella enterica, 16 h, read-out: minimum growth inhibitory concentration (MIC)
Method: as §1, §2

P.aeruginosa 0-11 = assay: MIC values of 10 kinds of Pseudomonas aeruginosa; settings: Pseudomonas aeruginosa, 011, 16 h; P.aeruginosa 0-11 (Table II); read-out: MIC values
Method: as §1, §2
(§3) MIC values of 10 kinds of Pseudomonas aeruginosa were measured for Compound III, Comparative Example B and CAZ.

P.aeruginosa 64 = assay: MIC values of 10 kinds of Pseudomonas aeruginosa; settings: Pseudomonas aeruginosa, 16 h; P.aeruginosa 64 (Table II); read-out: MIC values
Method: as §1, §2, §3

P.aeruginosa 88 = assay: MIC values of 10 kinds of Pseudomonas aeruginosa; settings: Pseudomonas aeruginosa, 16 h; P.aeruginosa 88 (Table II); read-out: MIC values
Method: as §1, §2, §3

P.aeruginosa ATCC27318 = assay: MIC values of 10 kinds of Pseudomonas aeruginosa; settings: 16 h, P.aeruginosa ATCC27318 (Table II), read-out: MIC values
Method: as §1, §2, §3

P.aeruginosa ATCC27577 = assay: MIC values of 10 kinds of Pseudomonas aeruginosa; settings: 16 h, P.aeruginosa ATCC27577 (Table II), read-out: MIC values
Method: as §1, §2, §3

P.aeruginosa N-26 = assay: MIC values of 10 kinds of Pseudomonas aeruginosa; settings: N26, 16 h, P.aeruginosa N-26 (Table II), read-out: MIC values
Method: as §1, §2, §3

P.aeruginosa N-2 = assay: MIC values of 10 kinds of Pseudomonas aeruginosa; settings: N2, 16 h, P.aeruginosa N-2 (Table II), read-out: MIC values
Method: as §1, §2, §3

P.aeruginosa N-3 = assay: MIC values of 10 kinds of Pseudomonas aeruginosa; settings: N3, 16 h, P.aeruginosa N-3 (Table II), read-out: MIC values
Method: as §1, §2, §3

P.aeruginosa NO. 97 = assay: MIC values of 10 kinds of Pseudomonas aeruginosa; settings: 16 h, P.aeruginosa NO. 97 (Table II), read-out: MIC values
Method: as §1, §2, §3

P.aeruginosa Tid53 = assay: MIC values of 10 kinds of Pseudomonas aeruginosa; settings: 16 h, P.aeruginosa Tid53 (Table II), read-out: MIC values
Method: as §1, §2, §3

Q: Which results are given for `CC(C)(ON=C(C(=O)NC1C(=O)N2C(C(=O)[O-])=C(C[n+]3ccc4cc(O)c(O)cc4c3)CSC12)c1nsc(N)n1)C(=O)O` [Compound III, (6R,7R)-7-[(Z)-2-(5-amino-1,2,4-thiadiazol-3-yl)-2-(2-carboxypropyl-2-yloxyimino)acetamide]-3-(6,7-dihydroxy-2-isoquinolinium)methyl-3-ce phem-4-carboxylate]?
A: MIC (E.cloacae 963): 5 ng/mL (≈ 0.00794 µM); MIC (K.pneumoniae PCI602): 5 ng/mL (≈ 0.00794 µM); MIC (M.luteus ATCC9341): 3100 ng/mL (≈ 4.92 µM); MIC (P.aeruginosa IFO3445): 12.5 ng/mL (≈ 0.0199 µM); MIC (P.aeruginosa NCTC1049): 5 ng/mL (≈ 0.00794 µM); MIC (P.aeruginosa PAD1): 12.5 ng/mL (≈ 0.0199 µM); MIC (P.morganii IFO3445): 5 ng/mL (≈ 0.00794 µM); MIC (P.vulgalis OX-11): 5 ng/mL (≈ 0.00794 µM); MIC (S. aureus Terajima): 3100 ng/mL (≈ 4.92 µM); MIC (S.aureus 209p NIHJ JC1): 12500 ng/mL (≈ 19.9 µM); MIC (S.enteritidis G14): 5 ng/mL (≈ 0.00794 µM); MIC (S.marcescens IAM1184): 5 ng/mL (≈ 0.00794 µM); MIC (S.pyogenes Cook): 1600 ng/mL (≈ 2.54 µM); MIC (S.typhi 901): 5 ng/mL (≈ 0.00794 µM); MIC (P.aeruginosa 0-11): 5 ng/mL (≈ 0.00794 µM); MIC (P.aeruginosa 64): 12.5 ng/mL (≈ 0.0199 µM); MIC (P.aeruginosa 88): 12.5 ng/mL (≈ 0.0199 µM); MIC (P.aeruginosa ATCC27318): 12.5 ng/mL (≈ 0.0199 µM); MIC (P.aeruginosa ATCC27577): 5 ng/mL (≈ 0.00794 µM); MIC (P.aeruginosa N-26): 12.5 ng/mL (≈ 0.0199 µM); MIC (P.aeruginosa N-2): 25 ng/mL (≈ 0.0397 µM); MIC (P.aeruginosa N-3): 12.5 ng/mL (≈ 0.0199 µM); MIC (P.aeruginosa NO. 97): 5 ng/mL (≈ 0.00794 µM); MIC (P.aeruginosa Tid53): 5 ng/mL (≈ 0.00794 µM)
